Measurements published in patent EP0492136A2, “Retroviral protease inhibitors derived from 3-chloro-2-chloromethyl-1-propene” (AMERICAN CYANAMID COMPANY, priority 1990, dated 1992).
pIC50: −log10 of the molar value.

What was measured:
HIV-1 protease = molecular target: T1, HIV-1 protease (Human immunodeficiency virus type 1 group M subtype B, UniProt P04585); assay: in vitro inhibition of HIV-1 protease (octapeptide substrate cleavage, HPLC); format: biochemical; settings: substrate H-Val-Ser-Gln-Asn-Tyr-Pro-Ile-Val-OH
T1 construct: HIV-1 protease is available for purchase from Medigenics; purchased Medigenics, 701 Mercy Rd., Suite 420, Omaha, Nebraska 68106
Procedure: HIV-1 protease is available for purchase from Medigenics, 701 Mercy Rd., Suite 420, Omaha, Nebraska 68106. Protease activity is assayed using the octapeptide H-Val-Ser-Gln-Asn-Tyr-Pro-Ile-Val-OH as the substrate. Cleavage of the substrate is quantitated by measuring the production of H-Val-Ser-Gln-Asn-Tyr-OH by HPLC analysis by the method described by Tomaselli et al., (cited previously).

[1] = test system: HTLV-IIIB strain of HIV-1; assay: anti-HIV-1 activity in H9 based tissue culture, supernatant p24 antigen; format: cell-based; settings: for inhibition at 0.2 µg/mL / inhibition at 2 µg/mL / inhibition at 20 µg/mL: Human immunodeficiency virus 1, IIIB, read-out: % Inhibition p24; for % Inhibition p24: H9 culture, relative to infected control cultures
Procedure: Compounds are also tested for their ability to act as anti-HIV-1 compounds in tissue culture. The tests are performed in H9 based tissue culture challenged with HTLV-IIIB strain of HIV-1. The assay consists of evaluating the percent inhibition of supernatent p24 antigen concentrations relative to infected control cultures, as well as percent viable cells at 20 µg/ml in uninfected cells.

HIV-1 strain IIIB = assay: inhibition of growth of HIV-1 in MT-2 cells, CPE (cell death) measured with MTT dye; format: cell-based; settings: T lymphoid MT-2 cell lines, after 5 days; for inhibition at 2.5 µg/mL / inhibition at 0.625 µg/mL: Human immunodeficiency virus 1, IIIB, MT2, 120 h, read-out: % Inhibition at Concentration
Description: In Table 3 data is shown for the ability of these compounds to inhibit growth of HIV-1 strain IIIB in T lymphoid MT-2 cell lines. The endpoint of these experiments after 5 days is CPE (cell death) measured with the metabolic MTT dye.

Compound: CC(C)CNC(=O)[C@H](Cc1ccccc1)CC(O)C[C@@H](Cc1ccccc1)C(=O)NCC(C)C (relative stereo) [Example 331, [R,(R*,R*)-N,N'-4-hydroxy-N,N'-bis(2-methylpropyl)-2,6-bis(phenylmethyl)heptanediamide]
- pIC50 (HIV-1 protease): 6.30

Compound: CC(C)(C)NC(=O)C1CCCCN1CC(O)(CO)CN1CCCCC1C(=O)NC(C)(C)C (single isomer, unassigned) [58 (Isomer A)]
- pIC50 (HIV-1 protease): < 3.00

Compound: CC(C)(C)NC(=O)C1CCCCN1CC(O)(CO)CN1CCCCC1C(=O)NC(C)(C)C (single isomer, unassigned) [58 (Isomer B)]
- pIC50 (HIV-1 protease): 4.00

Compound: CC(C)(C)NC(=O)C(Cc1ccccc1)CC(O)CC(Cc1ccccc1)C(=O)NC(C)(C)C (stereo not drawn) [Example 36]
- pIC50 (HIV-1 protease): 7.00

Compound: O=C(NC1CCCC1)C(Cc1ccccc1)CC(O)CC(Cc1ccccc1)C(=O)NC1CCCC1 (stereo not drawn) [Example 39]
- pIC50 (HIV-1 protease): 8.00

Compound: O=C(NCC1CCCCC1)C(Cc1ccccc1)CC(O)CC(Cc1ccccc1)C(=O)NCC1CCCCC1 (stereo not drawn) [Example 42]
- pIC50 (HIV-1 protease): 4.30

Compound: CC(C)(C)OC(=O)NC1CCCCC1NC(=O)C(Cc1ccccc1)CC(O)CC(Cc1ccccc1)C(=O)NC1CCCCC1NC(=O)OC(C)(C)C (stereo not drawn) [Example 46]
- pIC50 (HIV-1 protease): 6.10

Compound: CC(C)(C)NC(=O)CN(Cc1ccccc1)CC(O)(CO)CN(CC(=O)NC(C)(C)C)Cc1ccccc1 [Example 52]
- pIC50 (HIV-1 protease): 5.30
- inhibition at 0.2 µg/mL [1]: 0%
- inhibition at 2 µg/mL [1]: 0%
- inhibition at 20 µg/mL [1]: 90%

Compound: CC(C)(C)NC(=O)CN(Cc1ccccc1)CC(O)CN(CC(=O)NC(C)(C)C)Cc1ccccc1 [Example 53]
- pIC50 (HIV-1 protease): 4.00

Compound: CCOC(=O)CN(Cc1ccccc1)CC(O)(CO)CN(CC(=O)NC(C)(C)C)Cc1ccccc1 (stereo not drawn) [Example 54]
- pIC50 (HIV-1 protease): 4.00

Compound: CCOC(=O)CN(Cc1ccccc1)CC(O)(CO)CN(CC(=O)OCC)Cc1ccccc1 [Example 55]
- pIC50 (HIV-1 protease): 4.00
- inhibition at 0.2 µg/mL [1]: 0%
- inhibition at 2 µg/mL [1]: 0%
- inhibition at 20 µg/mL [1]: 0%

Compound: CCOC(=O)CN(CC1CCCCC1)CC(O)(CO)CN(CC(=O)OCC)CC1CCCCC1 [Example 60]
- pIC50 (HIV-1 protease): 4.30

Compound: COC(=O)[C@H](Cc1ccccc1)NC(=O)[C@@H](NC(=O)[C@H](Cc1ccccc1)CC(O)C[C@@H](Cc1ccccc1)C(=O)N[C@H](C(=O)N[C@@H](Cc1ccccc1)C(=O)OC)C(C)C)C(C)C [Example 110, [R-(R*,R*)]-N^ω,N^ω'-(2,6-Bis(phenylmethyl)-4-hydroxy-1,7-dioxo-1,7-heptanediyl)bis[N-L-valyl-L-phenylalanine] dimethyl ester]
- pIC50 (HIV-1 protease): 8.00
- inhibition at 2.5 µg/mL (HIV-1 strain IIIB; 2.5 µg/ml): 58.7%
- inhibition at 0.625 µg/mL (HIV-1 strain IIIB; .625 µg/ml): 16.6%

Compound: O=C(NC1CCCCC1Nc1ccncc1)C(Cc1ccccc1)CC(O)CC(Cc1ccccc1)C(=O)NC1CCCCC1Nc1ccncc1 (stereo not drawn) [Example 323, [1S-[1α[2R*,6R*,7(1R*,2R*)],2β]]-4-Hydroxy-2,6-bis(phenylmethyl)-N,N'-bis[[(4-pyridyl)amino]cyclohexyl]-heptanediamde]
- pIC50 (HIV-1 protease): 7.00
- % Inhibition at Concentration (HIV-1 strain IIIB; 2.5 µg/ml): 3.1%
- % Inhibition at Concentration (HIV-1 strain IIIB; .625 µg/ml): 0.2%

Compound: O=C(NC1CCCCC1Nc1cccnc1)C(Cc1ccccc1)CC(O)CC(Cc1ccccc1)C(=O)NC1CCCCC1Nc1cccnc1 (stereo not drawn) [Example 324, [1S-[1α[2R*,6R*,7(1R*,2R*)],2β]]-4-Hydroxy-2,6-bis(phenylmethyl)-N,N'-bis[[(3-pyridyl)amino]cyclohexyl]-heptanediamde]
- pIC50 (HIV-1 protease): 7.00

Compound: O=C(NC1CCCCC1Nc1ccccn1)C(Cc1ccccc1)CC(O)CC(Cc1ccccc1)C(=O)NC1CCCCC1Nc1ccccn1 (stereo not drawn) [Example 325, [1S-[1α[2R*,6R*,7(1R*,2R*)],2β]]-4-Hydroxy-2,6-bis(phenylmethyl)-N,N'-bis[[(2-pyridyl)amino]cyclohexyl]-heptanediamde]
- pIC50 (HIV-1 protease): 7.00
- % Inhibition at Concentration (HIV-1 strain IIIB; 2.5 µg/ml): 3.8%
- % Inhibition at Concentration (HIV-1 strain IIIB; .625 µg/ml): 0.0%

Compound: CC(=O)NC1CCCCC1NC(=O)C(Cc1ccccc1)CC(O)CC(Cc1ccccc1)C(=O)NC1CCCCC1NC(C)=O (stereo not drawn) [Example 326, [1S-[1α[2R*,6R*,7(1R*,2R*)],2β]]-4-Hydroxy-2,6-bis(phenylmethyl)-N,N'-bis[[(2-acetyl)amino]cyclohexyl]-heptanediamde]
- pIC50 (HIV-1 protease): 7.00
- % Inhibition p24 ([1]; 2 µg/ml): 0%
- % Inhibition p24 ([1]; 20 µg/ml): 3%
- % Inhibition p24 ([1]; .2 µg/ml): 0%

Compound: O=C(Cc1ccccn1)NC1CCCCC1NC(=O)C(Cc1ccccc1)CC(O)CC(Cc1ccccc1)C(=O)NC1CCCCC1NC(=O)Cc1ccccn1 (stereo not drawn) [Example 327, [1S-[1α[2R*,6R*,7(1R*,2R*)],2β]]-4-Hydroxy-2,6-bis(phenylmethyl)-N,N'-bis[[((2-pyridyl)acetyl)amino]cyclohexyl]-heptanediamde]
- pIC50 (HIV-1 protease): 7.00
- % Inhibition at Concentration (HIV-1 strain IIIB; 2.5 µg/ml): 3.2%
- % Inhibition at Concentration (HIV-1 strain IIIB; .625 µg/ml): 3.2%

Compound: CC(C)C(NC(=O)C(Cc1ccccc1)CC(O)CC(Cc1ccccc1)C(=O)NC(C(=O)NCc1nc2ccccc2[nH]1)C(C)C)C(=O)NCc1nc2ccccc2[nH]1 (stereo not drawn) [Example 328, [1S-[1R*[2S*,6S*,7R*],2R*]]-4-Hydroxy-2,6-bis(phenylmethyl)-N,N'-bis[1-[[(1-H-benzimidazoyl-2ylmethyl)amino]carbonyl]-2-methylpropyl]-heptanediamide]
- pIC50 (HIV-1 protease): 8.30
- inhibition at 2.5 µg/mL (HIV-1 strain IIIB; 2.5 µg/ml): 72.8%
- inhibition at 0.625 µg/mL (HIV-1 strain IIIB; .625 µg/ml): 17.1%

Compound: CCC(C)C(NC(=O)C(Cc1ccccc1)CC(O)CC(Cc1ccccc1)C(=O)NC(C(=O)NCc1nc2ccccc2[nH]1)C(C)CC)C(=O)NCc1nc2ccccc2[nH]1 (stereo not drawn) [Example 329, [1S-[1R*[2S*,6S*,7(1R*,2R*)],2R*]]-4-Hydroxy-2,6-bis(phenylmethyl)-N,N'-bis[1-[[(1-H-benzimidazoyl-2ylmethyl)amino]carbonyl]-2-methylbutyl]heptanediamide]
- pIC50 (HIV-1 protease): 8.30
- inhibition at 2.5 µg/mL (HIV-1 strain IIIB; 2.5 µg/ml): 97.9%
- inhibition at 0.625 µg/mL (HIV-1 strain IIIB; .625 µg/ml): 92.5%

Compound: O=C(NC1CCCCC1)[C@H](Cc1ccccc1)CC(O)C[C@@H](Cc1ccccc1)C(=O)NC1CCCCC1 [Example 330, [R-(R*,R*)]-N,N'dicyclohexyl-4-hydroxy-2,6-bis(phenylmethyl) heptanediamide]
- pIC50 (HIV-1 protease): 7.00
- inhibition at 0.2 µg/mL [1]: 0%
- inhibition at 2 µg/mL [1]: 0%
- inhibition at 20 µg/mL [1]: 0%
